Measured values taken from PubChem BioAssay AID504479 (NMMLSC, 2011).
Active and inactive are the calls of the source.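 How the source made its calls: active means GFP ratio vs DMSO below 0.65 in a strain, using the primary screen cutoff set for that strain's protein target; inactive means the rest.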

How the values were obtained:
Assay in all cases: GFP reporter expression in TORC1-bypass yeast, mechanism study for yeast TOR pathway modulator project, S. cerevisiae, TORC1 bypass vs wild-type strains (AID 504479)
Conditions in all cases: fluorescence ratio vs DMSO, at 10 µM
YKL103C = tested on: YKL103C
YNL142W = tested on: YNL142W
YCR005C = tested on: YCR005C
YBR084C-A = tested on: YBR084C-A
YCL025C = tested on: YCL025C
BY4741 = tested on: BY4741
[1] = LAP4-GFP in TORC1 bypass strain, stronger effect = higher value
[2] = MEP2-GFP in TORC1 bypass strain, stronger effect = higher value
[3] = CIT2-GFP in TORC1 bypass strain, stronger effect = higher value
[4] = RPL19A-GFP in TORC1 bypass strain, stronger effect = lower value
[5] = AGP1-GFP in TORC1 bypass strain, stronger effect = higher value

**Q.** What does the source list for `Cc1ccc(C(=O)NNC(=S)NC(=O)COc2ccccc2)cc1`?
**A.** GFP ratio vs DMSO (YKL103C; [1]): 1.45; GFP ratio vs DMSO (YKL103C): 2.49; GFP ratio vs DMSO (YNL142W; [2]): 1.25; GFP ratio vs DMSO (YNL142W): 1.22 (inactive); GFP ratio vs DMSO (YCR005C; [3]): 0.861; GFP ratio vs DMSO (YCR005C): 0.988 (inactive); GFP ratio vs DMSO (YBR084C-A; [4]): 1.22; GFP ratio vs DMSO (YBR084C-A): 1.27 (inactive); GFP ratio vs DMSO (YCL025C; [5]): 0.914; GFP ratio vs DMSO (YCL025C): 1.11 (inactive); GFP ratio vs DMSO (BY4741): 1.29 (inactive)

**Q.** How did the GFP ratio vs DMSO (YKL103C; [1]) turn out when `CO[C@H]1C[C@@H]2CC[C@@H](C)[C@@](O)(O2)C(=O)C(=O)N2CCCC[C@H]2C(=O)O[C@H]([C@H](C)C[C@@H]2CC[C@@H](O)[C@H](OC)C2)CC(=O)[C@H](C)/C=C(\C)[C@@H](O)[C@@H](OC)C(=O)[C@H](C)C[C@H](C)/C=C/C=C/C=C/1C` was run?
**A.** 1.17

**Q.** What about the GFP ratio vs DMSO (YKL103C) of the same molecule?
**A.** 2.52

**Q.** And the GFP ratio vs DMSO (YNL142W; [2])?
**A.** 1.01

**Q.** What about the GFP ratio vs DMSO (YNL142W) of the same molecule?
**A.** 12.5

**Q.** What about the GFP ratio vs DMSO (YCR005C; [3]) of the same molecule?
**A.** 2.4

**Q.** What about the GFP ratio vs DMSO (YCR005C) of the same molecule?
**A.** 3.29

**Q.** And the GFP ratio vs DMSO (YBR084C-A; [4])?
**A.** 0.67

**Q.** And the GFP ratio vs DMSO (YBR084C-A)?
**A.** 0.597

**Q.** And the GFP ratio vs DMSO (YCL025C; [5])?
**A.** 1.51

**Q.** And the GFP ratio vs DMSO (YCL025C)?
**A.** 2.28

**Q.** And the GFP ratio vs DMSO (BY4741)?
**A.** 1.1 (inactive)

**Q.** How did the GFP ratio vs DMSO (YKL103C; [1]) turn out when `O=C1ON=C(c2ccccc2)/C1=C/c1ccco1` was run?
**A.** 1.17

**Q.** And the GFP ratio vs DMSO (YKL103C)?
**A.** 1.64

**Q.** And the GFP ratio vs DMSO (YNL142W; [2])?
**A.** 1.01

**Q.** What about the GFP ratio vs DMSO (YNL142W) of the same molecule?
**A.** 1.03 (inactive)

**Q.** What about the GFP ratio vs DMSO (YCR005C; [3]) of the same molecule?
**A.** 0.825

**Q.** What about the GFP ratio vs DMSO (YCR005C) of the same molecule?
**A.** 1.34 (inactive)

**Q.** What about the GFP ratio vs DMSO (YBR084C-A; [4]) of the same molecule?
**A.** 0.972

**Q.** And the GFP ratio vs DMSO (YBR084C-A)?
**A.** 0.965 (inactive)

**Q.** And the GFP ratio vs DMSO (YCL025C; [5])?
**A.** 0.65

**Q.** And the GFP ratio vs DMSO (YCL025C)?
**A.** 0.853 (inactive)

**Q.** What about the GFP ratio vs DMSO (BY4741) of the same molecule?
**A.** 0.912 (inactive)

**Q.** What does the source list for `O=[N+]([O-])c1cc(S(=O)(=O)C(F)(F)F)ccc1Sc1nc2ccccc2s1`?
**A.** GFP ratio vs DMSO (YKL103C; [1]): 1.22; GFP ratio vs DMSO (YKL103C): 1.71; GFP ratio vs DMSO (YNL142W; [2]): 0.92; GFP ratio vs DMSO (YNL142W): 0.887 (inactive); GFP ratio vs DMSO (YCR005C; [3]): 0.848; GFP ratio vs DMSO (YCR005C): 0.985 (inactive); GFP ratio vs DMSO (YBR084C-A; [4]): 0.993; GFP ratio vs DMSO (YBR084C-A): 0.985 (inactive); GFP ratio vs DMSO (YCL025C; [5]): 0.722; GFP ratio vs DMSO (YCL025C): 0.876 (inactive); GFP ratio vs DMSO (BY4741): 0.811 (inactive)

**Q.** `Cn1ncc(S(=O)(=O)Cc2ccccc2)c(Cl)c1=O` was tested. Which GFP ratio vs DMSO (YKL103C; [1]) did it give?
**A.** 1.56

**Q.** What about the GFP ratio vs DMSO (YKL103C) of the same molecule?
**A.** 1.63

**Q.** And the GFP ratio vs DMSO (YNL142W; [2])?
**A.** 0.971

**Q.** And the GFP ratio vs DMSO (YNL142W)?
**A.** 1.46 (inactive)

**Q.** What about the GFP ratio vs DMSO (YCR005C; [3]) of the same molecule?
**A.** 1.02

**Q.** And the GFP ratio vs DMSO (YCR005C)?
**A.** 1.15 (inactive)

**Q.** What about the GFP ratio vs DMSO (YBR084C-A; [4]) of the same molecule?
**A.** 0.786

**Q.** What about the GFP ratio vs DMSO (YBR084C-A) of the same molecule?
**A.** 0.76 (inactive)

**Q.** And the GFP ratio vs DMSO (YCL025C; [5])?
**A.** 0.801

**Q.** And the GFP ratio vs DMSO (YCL025C)?
**A.** 0.984 (inactive)

**Q.** What about the GFP ratio vs DMSO (BY4741) of the same molecule?
**A.** 1.31 (inactive)

**Q.** Which GFP ratio vs DMSO (YKL103C; [1]) does the source give for `C/C(=N\NC(=O)c1ccc(C(C)(C)C)cc1)c1ccccn1` here?
**A.** 0.982

**Q.** And the GFP ratio vs DMSO (YKL103C)?
**A.** 1.13 (inactive)

**Q.** What about the GFP ratio vs DMSO (YNL142W; [2]) of the same molecule?
**A.** 0.969

**Q.** And the GFP ratio vs DMSO (YNL142W)?
**A.** 0.804 (inactive)

**Q.** And the GFP ratio vs DMSO (YCR005C; [3])?
**A.** 0.847

**Q.** What about the GFP ratio vs DMSO (YCR005C) of the same molecule?
**A.** 0.835 (inactive)

**Q.** What about the GFP ratio vs DMSO (YBR084C-A; [4]) of the same molecule?
**A.** 0.974

**Q.** And the GFP ratio vs DMSO (YBR084C-A)?
**A.** 1.03 (inactive)

**Q.** And the GFP ratio vs DMSO (YCL025C; [5])?
**A.** 0.884

**Q.** And the GFP ratio vs DMSO (YCL025C)?
**A.** 0.896 (inactive)

**Q.** What about the GFP ratio vs DMSO (BY4741) of the same molecule?
**A.** 1.12 (inactive)

**Q.** Which GFP ratio vs DMSO (YKL103C; [1]) does the source give for `O=[N+]([O-])c1cc(O)c2ncccc2c1` here?
**A.** 1.29

**Q.** And the GFP ratio vs DMSO (YKL103C)?
**A.** 1.4 (inactive)

**Q.** What about the GFP ratio vs DMSO (YNL142W; [2]) of the same molecule?
**A.** 0.918

**Q.** What about the GFP ratio vs DMSO (YNL142W) of the same molecule?
**A.** 0.698 (inactive)

**Q.** What about the GFP ratio vs DMSO (YCR005C; [3]) of the same molecule?
**A.** 0.869

**Q.** And the GFP ratio vs DMSO (YCR005C)?
**A.** 0.806 (inactive)

**Q.** And the GFP ratio vs DMSO (YBR084C-A; [4])?
**A.** 0.993

**Q.** What about the GFP ratio vs DMSO (YBR084C-A) of the same molecule?
**A.** 1.01 (inactive)

**Q.** What about the GFP ratio vs DMSO (YCL025C; [5]) of the same molecule?
**A.** 0.739

**Q.** What about the GFP ratio vs DMSO (YCL025C) of the same molecule?
**A.** 0.763 (inactive)

**Q.** What about the GFP ratio vs DMSO (BY4741) of the same molecule?
**A.** 1.5 (inactive)

**Q.** Which results are given for `CC(C)(C)n1nc(-c2ccc(Cl)cc2)c2c(N)ncnc21`?
**A.** GFP ratio vs DMSO (YKL103C; [1]): 1.2; GFP ratio vs DMSO (YKL103C): 1.48 (inactive); GFP ratio vs DMSO (YNL142W; [2]): 0.887; GFP ratio vs DMSO (YNL142W): 1.04 (inactive); GFP ratio vs DMSO (YCR005C; [3]): 0.547; GFP ratio vs DMSO (YCR005C): 0.359 (inactive); GFP ratio vs DMSO (YBR084C-A; [4]): 0.612; GFP ratio vs DMSO (YBR084C-A): 0.547; GFP ratio vs DMSO (YCL025C; [5]): 0.927; GFP ratio vs DMSO (YCL025C): 0.943 (inactive); GFP ratio vs DMSO (BY4741): 0.794 (inactive)

**Q.** With `O=[N+]([O-])c1ccc(S(=O)(=O)c2cccc(C(F)(F)F)c2)nc1` as the molecule, how does the GFP ratio vs DMSO (YKL103C; [1]) read?
**A.** 1.63

**Q.** And the GFP ratio vs DMSO (YKL103C)?
**A.** 2.2

**Q.** What about the GFP ratio vs DMSO (YNL142W; [2]) of the same molecule?
**A.** 1.04

**Q.** What about the GFP ratio vs DMSO (YNL142W) of the same molecule?
**A.** 1.52 (inactive)

**Q.** What about the GFP ratio vs DMSO (YCR005C; [3]) of the same molecule?
**A.** 0.934

**Q.** And the GFP ratio vs DMSO (YCR005C)?
**A.** 0.976 (inactive)

**Q.** What about the GFP ratio vs DMSO (YBR084C-A; [4]) of the same molecule?
**A.** 0.969

**Q.** What about the GFP ratio vs DMSO (YBR084C-A) of the same molecule?
**A.** 0.902 (inactive)

**Q.** And the GFP ratio vs DMSO (YCL025C; [5])?
**A.** 0.813

**Q.** And the GFP ratio vs DMSO (YCL025C)?
**A.** 1.04 (inactive)

**Q.** What about the GFP ratio vs DMSO (BY4741) of the same molecule?
**A.** 1.03 (inactive)

**Q.** For `CCCCC(=O)NNC(=S)NC(=O)c1ccc(C)cc1`, which GFP ratio vs DMSO (YKL103C; [1]) is on record?
**A.** 2.03

**Q.** What about the GFP ratio vs DMSO (YKL103C) of the same molecule?
**A.** 3.37

**Q.** And the GFP ratio vs DMSO (YNL142W; [2])?
**A.** 1.24

**Q.** What about the GFP ratio vs DMSO (YNL142W) of the same molecule?
**A.** 1.22 (inactive)

**Q.** And the GFP ratio vs DMSO (YCR005C; [3])?
**A.** 0.942

**Q.** And the GFP ratio vs DMSO (YCR005C)?
**A.** 1.17 (inactive)

**Q.** And the GFP ratio vs DMSO (YBR084C-A; [4])?
**A.** 1.34

**Q.** And the GFP ratio vs DMSO (YBR084C-A)?
**A.** 1.27 (inactive)

**Q.** And the GFP ratio vs DMSO (YCL025C; [5])?
**A.** 0.974

**Q.** And the GFP ratio vs DMSO (YCL025C)?
**A.** 1.1 (inactive)

**Q.** What about the GFP ratio vs DMSO (BY4741) of the same molecule?
**A.** 1.56 (inactive)
